From patent US9616047B2, “Inhibitors of beta-catenin in treatment of colorectal cancer” (Regents of the University of Minnesota, priority 2014, dated 2017)
Entries after “also recorded” stand apart in the source; their conditions may differ.

Columns and labels:
[1] = test system: β-catenin/Tcf-4 complex; test: Immunoprecipitation assay of β-catenin/Tcf-4 complex in colon cancer cells; format: cell-based
Protocol: Colon cancer cells treated or not treated with low or high concentrations of compounds for 24 h were disrupted with lysis buffer (50 mmol/L Tris, pH 8, 250 mmol/L NaCl, 5 mmol/L EDTA, 0.1% NP-40, 10% glycerol, and 1× protease inhibitor cocktail). Cell lysates were cleared by centrifugation, and immunoprecipitations were performed by incubating overnight with anti-β-catenin. Agarose beads were then added and samples incubated for 3 h at 4° C. After removing unbound proteins by washing five times with lysis buffer, bound proteins were harvested by boiling in sample buffer, and resolved by 8% SDS-PAGE. β-Catenin and Tcf-4 proteins were visualized using a chemiluminescence reagent (Amersham).

[2] = test system: xenograft colon cancer tumor; test: Xenograft colon cancer tumor growth in nude mice; format: in vivo
[3] = test system: Tcf-4/β-catenin complex; test: Immunoprecipitation and Western blotting in 293T cells transfected with wildtype or mutant β-catenin; format: cell-based; conditions: 293T cells transfected with mutant β-catenin
Protocol: (§1) We used computational biology technology and medicinal chemistry to identify potential inhibitors of β-catenin. […] To further confirm binding, wildtype or mutant β-catenin was transfected into 293T cells and immunoprecipitation and Western blotting were performed. […] Overall, esculetin appears to be an effective, non-toxic inhibitor of the Tcf-4/β-catenin complex.

[4] = biological target: T1, Tcf-4/β-catenin complex (Homo sapiens, UniProt P35222); test: as above; format: cell-based; conditions: 293T cells transfected with wildtype β-catenin
T1 construct: expressed in transfected cells; host or cells: 293T cells
T1 sequence (P35222 2-781): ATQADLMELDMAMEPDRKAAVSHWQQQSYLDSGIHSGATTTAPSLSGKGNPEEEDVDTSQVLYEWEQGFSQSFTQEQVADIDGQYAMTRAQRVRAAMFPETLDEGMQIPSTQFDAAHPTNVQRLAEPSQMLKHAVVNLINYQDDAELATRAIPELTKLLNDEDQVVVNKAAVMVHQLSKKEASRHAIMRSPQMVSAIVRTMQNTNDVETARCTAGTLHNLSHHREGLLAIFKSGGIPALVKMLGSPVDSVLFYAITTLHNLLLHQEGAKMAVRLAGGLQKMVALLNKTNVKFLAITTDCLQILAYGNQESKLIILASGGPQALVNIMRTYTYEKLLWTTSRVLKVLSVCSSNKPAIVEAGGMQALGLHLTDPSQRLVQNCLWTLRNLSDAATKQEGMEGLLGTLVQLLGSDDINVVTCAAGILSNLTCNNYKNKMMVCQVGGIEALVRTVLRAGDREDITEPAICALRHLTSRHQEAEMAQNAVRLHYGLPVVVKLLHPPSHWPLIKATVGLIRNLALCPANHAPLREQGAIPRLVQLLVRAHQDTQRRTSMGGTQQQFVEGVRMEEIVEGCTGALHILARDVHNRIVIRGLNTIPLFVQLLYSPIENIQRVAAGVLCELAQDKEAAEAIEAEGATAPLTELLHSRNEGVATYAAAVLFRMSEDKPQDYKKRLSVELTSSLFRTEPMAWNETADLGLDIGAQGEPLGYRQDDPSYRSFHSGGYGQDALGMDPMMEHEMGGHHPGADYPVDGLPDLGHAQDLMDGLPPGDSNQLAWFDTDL
Protocol: as §1

[5] = test system: β-catenin/Tcf-4 luciferase activity; test: β-catenin/Tcf-4 luciferase reporter assay (TOP-flash/FOP-flash) in HCT116; format: cell-based; conditions: normalized to Renilla, 24 h treatment
Excerpt: (§2) FIGS. 1A-C. HI-B1, HI-B5 and HI-B9 inhibit beta-catenin/Tcf-4 luciferase activity in colon cancer cell lines. (A) Chemical structures of three compounds. (B-C) Effects of HI-B1, HI-B5 and HI-B9 on the β-catenin/Tcf-4 luciferase activity in HCT116 (B) and HT29 (C) colon cancer cell lines. […] Colon cancer cells were co-transfected with reporter genes harboring the β-catenin/Tcf binding site (TOP-flash) or a mutant β-catenin/Tcf binding site (FOP-flash), respectively, and the Renilla gene. The luciferase activity was normalized to Renilla activity.
(§3) Transient transfection was performed using jetPEI and assays to detect firefly luciferase and Renilla activities according to the manufacturer's manual (Promega). Briefly, cells were seeded onto 10-cm plates and co-transfected with 400 ng of the Renilla luciferase internal control gene and 4 μg of the TOP-flash luciferase reporter construct containing three tandem Tcf consensus binding sites upstream of luciferase cDNA, or the FOPflash luciferase reporter construct, a plasmid with mutated Tcf binding sites. After 16 h of transfection, cells were trypsinized and seeded onto 48-well plates, and cells were treated with respective chemicals for 24 h. Luciferase and Renilla activities were measured using their substrates.

[6] = test system: β-catenin; test: Ex vivo pull-down with compound-conjugated Sepharose 4B beads and colon cancer cell lysate: β-catenin; format: binding; conditions: colon cancer cell lysates; compound-conjugated Sepharose 4B beads
Protocol: (§4) Protein extracts (500 μg) of colon cancer cells were mixed with Sepharose-4B beads (as a negative control) or chemical-conjugated Sepharose 4B beads (100 μl) in reaction buffer. After being washed five times with buffer, the proteins were visualized by Western blot analysis.

[7] = test system: HCT116 colon cancer cells; test: Soft agar assay, anchorage-independent growth, HCT116; format: cell-based
Protocol: (§5) FIG. 2. […] HCT116 and HT-29 colon cancer cells. Colony formation of two cell lines were inhibited by treatment of β-catenin inhibitor candidates. Cells (8×10^3/ml) were incubated with or without HI-B5 or HI-B9 compounds in 1 mL of 0.33% BME agar containing 10% FBS or in 3.5 mL of 0.5% BME agar containing 10% FBS. The cultures were maintained at 37° C. in a 5% CO2 incubator for 7 days, after which the cell colonies were counted under a microscope.
(§6) Cells (8×10^3 per well) suspended in Basal Medium Eagle (BME) supplemented with 10% FBS were added to 0.3% agar with different doses of chemicals in a top layer over a basal layer of 0.6% agar. The cultures were maintained at 37° C. in a 5% CO2 incubator for 2 wk and then colonies were counted under a microscope using the Image-Pro Plus Software (v.4) program (Media Cybernetics).

[8] = biological target: T2, Tcf-4 (Homo sapiens, UniProt Q9NQB0); test: Ex vivo pull-down with compound-conjugated Sepharose 4B beads and colon cancer cell lysate: Tcf-4; format: binding; conditions: HCT116 and HT29 cell lysate
T2 construct: Protein extracts (500 μg) of colon cancer cells were mixed with Sepharose-4B beads; endogenous in cells; host or cells: HCT116 and HT29 cell lysate
Protocol: as §4

[9] = test system: β-catenin/Tcf-4 luciferase activity; test: β-catenin/Tcf-4 luciferase reporter assay (TOP-flash/FOP-flash) in HT29; format: cell-based; conditions: normalized to Renilla, 24 h treatment
Excerpt: as §2, §3

[10] = test system: target genes expressed by β-catenin/Tcf-4 complex; test: Quantitative real-time PCR of β-catenin/Tcf-4 target genes; format: cell-based; conditions: HI-B5 40 μM or HI-B9 20 μM; 12 hr of treatment
Protocol: FIGS. 3A-D. HI-B5 and HI-B9 reduce mRNA expression level of target genes expressed by β-catenin/Tcf-4 complex. (A) axin2, (B) cyclin D1, (C) c-myc and (D) pparδ mRNA expression was reduced by HI-B5 40 μM or HI-B9 20 μM treatment. Esculetin was used as a positive control. Expression level of each gene was detected after 12 hr of chemical treatment.
RNA isolation was performed according to the Trizol reagent protocol (catalog #15596-018, Invitrogen). The concentration and the purity of RNA was determined by measuring the absorbance at 260/280 nm. cDNA was synthesized using 1 μg of RNA and the amfiRevert Platinum cDNA synthesis master mix (GenDEPOT, Cat. No. R5600). For real time PCR, 1 μl of the synthesized cDNA was loaded into 1 well of a 96-well plate for detection of specific target genes using the Power SYBR Green PCR master mix (ABsystems, #4367659).

[11] = test system: HT-29 colon cancer cells; test: Soft agar assay, anchorage-independent growth, HT29; format: cell-based
Protocol: as §5, §6

T2 sequence (Q9NQB0 whole entry): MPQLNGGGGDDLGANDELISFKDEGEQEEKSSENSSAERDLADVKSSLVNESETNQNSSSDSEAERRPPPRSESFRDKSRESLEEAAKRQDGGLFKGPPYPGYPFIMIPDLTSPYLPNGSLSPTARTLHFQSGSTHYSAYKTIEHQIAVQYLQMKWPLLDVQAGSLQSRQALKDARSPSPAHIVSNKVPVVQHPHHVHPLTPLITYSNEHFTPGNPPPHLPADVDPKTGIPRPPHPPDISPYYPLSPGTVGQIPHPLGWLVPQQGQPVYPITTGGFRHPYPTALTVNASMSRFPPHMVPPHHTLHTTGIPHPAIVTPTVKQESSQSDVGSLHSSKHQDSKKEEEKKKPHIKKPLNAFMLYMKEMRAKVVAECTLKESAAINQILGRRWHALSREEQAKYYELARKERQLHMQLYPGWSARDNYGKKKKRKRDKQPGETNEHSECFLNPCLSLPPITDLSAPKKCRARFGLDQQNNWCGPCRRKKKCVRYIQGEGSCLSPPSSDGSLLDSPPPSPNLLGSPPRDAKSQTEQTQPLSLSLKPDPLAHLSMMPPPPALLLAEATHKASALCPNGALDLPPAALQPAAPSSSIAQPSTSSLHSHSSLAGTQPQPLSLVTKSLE

Structure (SMILES) | disruption of nuclear Tcf-4/β-catenin complex ([1]; colon cancer cells) | c-Myc and cyclin D1 expression in tumors ([2]; nude mice) | tumor size ([2]; nude mice) | xenograft colon cancer tumor growth ([2]; nude mice) | toxicity ([2]; overall statement) | effect on mutant Tcf-4/β-catenin complex [3] | disruption of wildtype Tcf-4/β-catenin complex [4] | transcriptional activity of β-catenin/Tcf-4 (luciferase activity) [5] | binding to β-catenin (ex vivo pull-down) [6] | anchorage-independent growth (colony formation in soft agar) [7] | Tcf-4 expression level after chemical treatment ([1]; HCT116) | disruption of β-catenin/Tcf-4 complex (immunoprecipitation) ([1]; HCT116 cell line, dose-dependent) | binding to Tcf-4 (ex vivo pull-down) [8] | transcriptional activity of β-catenin/Tcf-4 (luciferase activity) [9] | axin2 mRNA expression [10] | c-myc mRNA expression [10] | cyclin D1 mRNA expression [10] | pparδ mRNA expression [10] | anchorage-independent growth (colony formation in soft agar) [11]
O=c1ccc2cc(O)c(O)cc2o1 [esculetin] | disrupted the nuclear Tcf-4/β-catenin complex in a dose-dependent manner | decreases | significantly smaller | effectively inhibited xenograft colon cancer tumor growth | non-toxic | had no effect | effectively disrupted | inhibited transcriptional activity of the β-catenin/Tcf complex | verified the binding |  |  |  |  |  |  |  |  |  | 
CC1=C(/C=C/C(=O)/C=C2/C(=O)Nc3ccc(F)cc32)C(C)(C)CCC1 [HI-B5] |  |  |  |  |  |  |  | suppress transcriptional activity of the β-catenin/Tcf-4 in a dose-dependent manner | verified the binding; also recorded: can interact with β-catenin | suppress anchorage-independent growth | not altered | caused disruption of β-catenin/Tcf-4 complex | not Tcf-4 | suppress transcriptional activity of the β-catenin/Tcf-4 in a dose-dependent manner | reduced | reduced | reduced | reduced | suppress anchorage-independent growth
CC1(C)CCC(C)(C)c2cc(C(=O)CC3(O)C(=O)Nc4ccc(F)cc43)ccc21 (stereo not drawn) [HI-B9] |  |  |  |  |  |  |  | suppress transcriptional activity of the β-catenin/Tcf-4 in a dose-dependent manner | verified the binding | suppress anchorage-independent growth |  |  |  | suppress transcriptional activity of the β-catenin/Tcf-4 in a dose-dependent manner | reduced | reduced | reduced | reduced | suppress anchorage-independent growth
